Measurements: US4539333A, “Prostacyclin, methods of using and method of making” (Burroughs Wellcome Co., priority 1976, dated 1985)

Key:
[1] = system: human platelet rich plasma (PRP); test: Aggregation of platelets in fresh human platelet rich plasma, Born aggregometer; type: cell-based
Procedure: Aggregation of platelets in 1 ml. of fresh human platelet rich plasma (PRP) was monitored in a Born aggregometer. An immediate anti-aggregatory effect of the fresh reaction mixture of Example 1 of aortic microsomes with PGH2 or PGG2 was observed. The lowest anti-aggregatory concentration was obtained with samples containing 0.5-5 ng. Prostacyclin/ml.

strips of rabbit aorta = test: Contraction of rabbit aorta strips (cascade superfusion bioassay)
Procedure: Aortic microsomal powder (5 mg) was incubated with 1 μg of prostalgandin endoperoxide (PGG2 or PGH2) in 0.05 M Tris buffer (pH 7.5) (1 ml.) for 2 minutes at 22° C. Enzyme activity was estimated by direct bioassay of the incubation mixture. After incubation of 2 minutes at 22° C. all prostaglandin endoperoxide activity was lost indicated by a lack of contraction of rabbit aorta strips when assayed by the cascade superfusion technique of Vane (Br. J. Pharmacy. 23, 369-373, 1964 indicating 100% conversion of PGG2 or PGH2.

blood pressure = test: Blood pressure and heart rate in normotensive anaesthetised rats; type: in vivo; conditions: injected intravenously and intra-aortically
Procedure: Prostacyclin was injected intravenously and intra-aortically into normotensive anaethetised rats and the blood pressure and heart rate recorded.

[2] = system: strips of coeliac and mesenteric arteries; test: Relaxation of strips of coeliac and mesenteric arteries; set-up: species or system rabbit
[3] = system: isolated hearts from rabbits; test: Isolated hearts perfused at constant flow rate by the Langendorf technique; conditions: rabbit hearts
[4] = system: gastric lesions induced by indomethacin; test: Gastric lesions induced in rats by indomethacin; type: in vivo; conditions: doses from 62.5 to 250 μg/kg, subcutaneous injection
[5] = system: strips of coronary artery from the ox; test: Relaxation of spirally cut strips of coronary artery; conditions: dose dependent effect
Procedure: The effect is dose dependent and relaxation can be seen with doses as low as 20 nanograms per 5 ml bath.

[6] = Stability of Prostacyclin and of its anti-aggregatory activity (aqueous medium, storage); type: physicochemical
Procedure: Prostacyclin is unstable at room temperature in aqueous medium, having a half-life of approximately 10 mins., but its anti-aggregatory activity can be preserved for several days by dissolving the substance in aqueous alkali or in dry acetone and storing at -20° C. […] Prostacyclin also interrupts and reverses the presence of platelet aggregation.
The anti-aggregatory activity of the extracted Prostacyclin disappeared on bioling (15 seconds) or on standing at 22° C. for 20 minutes. The anti-aggregatory activity of Prostacyclin could be preserved for several days by dissolving the substance in dry acetone and storing at -20° C.

[7] = system: rabbit aorta, rabbit coeliac artery, rat stomach strip and rat colon; test: Profile of biological activity on isolated tissues
Procedure: 5.xi.-Iodo-9-deoxy-6.xi., 9α-epoxyprostaglandin F1α methyl ester (500 mg) was stirred with methanolic NaOMe prepared from Na (0.23 g., 10 equivs.) and MeOH (3.5 ml.) under N2 at room temperature overnight; 1N aq. NaOH (2.5 ml.) was added to the yellow reaction solution to bring about hydrolysis of the ester moiety and, after 2 hours, the methanol was evaporated in vacuo at room temperature. The residual aqueous solution gave rise spontaneously to a mass of colourless fine needles of the desired sodium salt (formula (I): R=Na) which was cooled (0°), collected, washed sparingly with 1N aq. NaOH, air-dried, and stored in a stoppered tube; this salt (383 mg.) had max (KBr disc) 1692 cm^-1 [drawing 4] and twenty ^13 C resonances only were observed (at 182.7 (C-1), 158.2 (C-6), 140.0 and 134.3 (C-13, 14), 100.7(C-5), 87.5(C-15), 80.6 and 75.5(C-9, 11), 58.0(C-12), 49.0, 45.8, 42.4, 41.9, 37.5, 35.8 (C-18), 31.6., 29.9, 29.3, 26.7(C-19), and 18.4(C-20) ppm from TMS in DMSO-d6). The product, sodium (5Z)- 5,6-didehydro-9-deoxy-6,9α-epoxyprostaglandin F1α (syn. sodium prostacyclin), thus obtained completed inhibited arachidonic acid-induced platelet aggregation (human platelet-rich plasma) at 1 ng./ml. and its profile of biological activity on the rabbit aorta, rabbit coeliac artery, rat stomach strip and rat colon conformed with that of sodium prostacyclin obtained by biosynthesis. […]

Row | Compound | minimal effective concentration ([1]; Platelet, fresh reaction mixture of aortic microsomes with PGH2 or PGG2, 1 ml human PRP, read-out: lowest anti-aggregatory concentration) | effect on platelet aggregation induced by arachidonic acid and PGG2 ([1]; diethyl ether extracts) | anti-aggregatory potency relative to PGD2 ([1]; times more potent than PGD2, on average) | anti-aggregatory potency relative to PGE1 ([1]; times more potent than PGE1, on average) | effect on strips of rabbit aorta (strips of rabbit aorta) | vasodepressor potency relative to PGE2 (blood pressure) | effect on strips of coeliac and mesenteric arteries [2] | potency compared with PGE2 on coeliac and mesenteric artery strips [2] | effect on coronary vessels [3] | effect on formation of gastric lesions [4] | lowest dose at which relaxation can be seen [5] | anti-aggregatory activity after boiling ([6]; boiling, 15 seconds, extracted Prostacyclin) | time for which anti-aggregatory activity is preserved on storage ([6]; dissolved in dry acetone (b5: or aqueous alkali), stored at -20° C.) | half-life ([6]; room temperature, aqueous medium) | anti-aggregatory activity after standing ([6]; standing at 22° C. for 20 minutes, extracted Prostacyclin) | IC100 ([1]; arachidonic acid-induced, human platelet-rich plasma, read-out: concentration giving complete inhibition of arachidonic acid-induced platelet aggregation) | profile of biological activity compared with sodium prostacyclin obtained by biosynthesis [7] | stability in water at acid pH ([6]; water, acid pH)
1 | CCCCC[C@H](O)/C=C/[C@@H]1[C@H]2C/C(=C/CCCC(=O)O)O[C@H]2C[C@H]1O [Prostacyclin, (5Z)-5,6-didehydro-9-deoxy-6,9α-epoxyprostaglandin F1α] | 0.0005 to 0.005 µg/mL | inhibited | 5-20 times | 10-40 times | does not contract | 5 times | relaxed | less potent than PGE2 | produced coronary vasodilation | inhibit the formation of gastric lesions | 20 nanograms per 5 ml bath | disappeared | several days | ~10 min | disappeared | – | – | –
2 | CCCCC[C@H](O)/C=C/[C@@H]1[C@H]2C/C(=C/CCCC(=O)O)O[C@H]2C[C@H]1O [sodium prostacyclin, sodium (5Z)-5,6-didehydro-9-deoxy-6,9α-epoxyprostaglandin F1α] | – | – | – | – | – | – | – | – | – | – | – | – | – | – | – | 0.001 µg/mL | conformed | instability
